pIC50: −log10 of the molar value. Each block holds one molecule with its values, some of them ahead of it.
Key:
[1] = tested on: pSLP76(S376) level in Jurkat cell line; test: Cellular pSLP76(S376) HTRF Assay; type: cell-based; details: Homo sapiens, Jurkat, Jurkat cells, 2 h compound treatment, stimulated with 0.05 μg/mL anti-human CD3 (OKT3) for 30 min
[2] = target: HPK1 kinase (aal-346. Life Technologies) (Homo sapiens (Human), UniProt Q92918); test: HPK Kinase Activity Assay at 1 mM ATP (TR-FRET); type: biochemical; details: HPK1 kinase 40 nM, 0.5 μM STK1 substrate, read-out: Enzymatic activity IC50
Chain of HPK1 kinase (aal-346. Life Technologies) (Q92918 1-346): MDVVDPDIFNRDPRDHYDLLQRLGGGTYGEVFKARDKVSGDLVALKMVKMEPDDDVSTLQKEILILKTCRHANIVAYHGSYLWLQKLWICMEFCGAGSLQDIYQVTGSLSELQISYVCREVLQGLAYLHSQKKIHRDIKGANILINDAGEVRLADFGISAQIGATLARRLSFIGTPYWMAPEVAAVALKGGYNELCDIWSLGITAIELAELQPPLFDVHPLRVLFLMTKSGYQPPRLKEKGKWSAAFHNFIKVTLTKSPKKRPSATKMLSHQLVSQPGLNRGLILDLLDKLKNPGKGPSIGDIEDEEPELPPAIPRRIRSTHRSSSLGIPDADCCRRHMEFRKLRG

pIC50 [1]: 6.74
pIC50 [2]: 7.17
SMILES: CNC(=O)NCc1ccc(-c2cnc(N)c(Oc3cnn(C4CCN(C)CC4)c3)n2)cc1C [Example A47, 1-(4-(5-amino-6-((1-(1-methylpiperidin-4-yl)-1H-pyrazol-4-yl)oxy)pyrazin-2-yl)-2-methylbenzyl)-3-methylurea]

pIC50 [1]: 6.74
pIC50 [2]: 7.30
SMILES: Cc1cc(-c2cnc(N)c(Oc3cnn(C4CCN(C)CC4)c3)n2)cc(C)c1CNCC(F)(F)F [Example A48, 5-(3,5-dimethyl-4-(((2,2,2-trifluoroethyl)amino)methyl)phenyl)-3-((1-(1-methylpiperidin-4-yl)-1H-pyrazol-4-yl)oxy)pyrazin-2-amine]

pIC50 [1]: 6.93
pIC50 [2]: 7.15
SMILES: Cc1cc(-c2cnc(N)c(Oc3cnn(C4CCN(C)CC4)c3)n2)cc(C(C)(C)O)c1 [Example A52, 2-(3-(5-amino-6-((1-(1-methylpiperidin-4-yl)-1H-pyrazol-4-yl)oxy)pyrazin-2-yl)-5-methylphenyl)propan-2-ol]

pIC50 [1]: 7.20
pIC50 [2]: 7.80
SMILES: Cc1cc(-c2cnc(N)c(Oc3cnn(C4CCN(C)CC4)c3)n2)cc(C)c1CNC(=O)NC(C)(C)C [Example A53, 1-(4-(5-amino-6-((1-(1-methylpiperidin-4-yl)-1H-pyrazol-4-yl)oxy)pyrazin-2-yl)-2,6-dimethylbenzyl)-3-(tert-butyl)urea]

pIC50 [1]: 7.48
pIC50 [2]: 8.00
SMILES: Cc1cc(-c2cnc(N)c(Oc3cnn(C4CCN(C)CC4)c3)n2)cc(C2(O)COC2)c1 [Example A54, 3-(3-(5-amino-6-((1-(1-methylpiperidin-4-yl)-1H-pyrazol-4-yl)oxy)pyrazin-2-yl)-5-methylphenyl)oxetan-3-ol]

pIC50 [1]: 7.07
pIC50 [2]: 7.28
SMILES: Cc1cc(-c2cnc(N)c(Oc3cnn(C4CCN(C)CC4)c3)n2)cc(C)c1CNc1ccn(C)n1 [Example A56, 5-(3,5-dimethyl-4-(((1-methyl-1H-pyrazol-3-yl)amino)methyl)phenyl)-3-((1-(1-methylpiperidin-4-yl)-1H-pyrazol-4-yl)oxy)pyrazin-2-amine]

pIC50 [1]: 7.12
pIC50 [2]: 7.62
SMILES: Cc1cc(-c2cnc(N)c(Oc3cnn(C4CCN(C)CC4)c3)n2)cc(C)c1CNc1cnn(C)c1 [Example A57, 5-(3,5-dimethyl-4-(((1-methyl-1H-pyrazol-4-yl)amino)methyl)phenyl)-3-((1-(1-methylpiperidin-4-yl)-1H-pyrazol-4-yl)oxy)pyrazin-2-amine]

pIC50 [1]: 7.16
pIC50 [2]: 7.54
SMILES: Cc1cc(-c2cnc(N)c(Oc3cnn(C4CCN(C)CC4)c3)n2)cc(C2(O)CCOCC2)c1 [Example A58, 4-(3-(5-amino-6-((1-(1-methylpiperidin-4-yl)-1H-pyrazol-4-yl)oxy)pyrazin-2-yl)-5-methylphenyl)tetrahydro-2H-pyran-4-ol]

pIC50 [1]: 7.36
pIC50 [2]: 8.00
SMILES: Cc1cc(-c2cnc(N)c(Oc3cnn(C4CCN(C)CC4)c3)n2)cc([C@@H]2CCC(=O)N2)c1 [Example A61B, (S)-5-(3-(5-amino-6-((1-(1-methylpiperidin-4-yl)-1H-pyrazol-4-yl)oxy)pyrazin-2-yl)-5-methylphenyl)pyrrolidin-2-one]

pIC50 [1]: 6.99
pIC50 [2]: 7.41
SMILES: Cc1cc(-c2cnc(N)c(Oc3cnn(C4CCN(C)CC4)c3)n2)cc(C)c1C1(O)COC1 [Example A63, 3-(4-(5-amino-6-((1-(1-methylpiperidin-4-yl)-1H-pyrazol-4-yl)oxy)pyrazin-2-yl)-2,6-dimethylphenyl)oxetan-3-ol]

pIC50 [1]: 7.08
pIC50 [2]: 7.74
SMILES: Cc1cc(-c2cnc(N)c(Oc3cnn(C4CCN(C)CC4)c3)n2)cc(C2(O)CCCC2)c1 [Example A65, 1-(3-(5-amino-6-((1-(1-methylpiperidin-4-yl)-1H-pyrazol-4-yl)oxy)pyrazin-2-yl)-5-methylphenyl)cyclopentan-1-ol]

pIC50 [1]: 6.80
pIC50 [2]: 7.29
SMILES: Cc1cc(-c2cnc(N)c(Oc3cnn(C4CCN(C)CC4)c3)n2)cc(C)c1CNc1ncn(C)n1 [Example A68, 5-(3,5-dimethyl-4-(((1-methyl-1H-1,2,4-triazol-3-yl)amino)methyl)phenyl)-3-((1-(1-methylpiperidin-4-yl)-1H-pyrazol-4-yl)oxy)pyrazin-2-amine]

pIC50 [1]: 7.08
pIC50 [2]: 7.24
SMILES: Cc1cc(-c2cnc(N)c(Oc3cnn(C4CCN(C)CC4)c3)n2)cc(C2(O)CCOC2)c1 (stereo not shown) [Example A69, 3-(3-(5-amino-6-((1-(1-methylpiperidin-4-yl)-1H-pyrazol-4-yl)oxy)pyrazin-2-yl)-5-methylphenyl)tetrahydrofuran-3-ol]

pIC50 [1]: 7.12
pIC50 [2]: 8.17
SMILES: CCC(C)(O)c1cc(C)cc(-c2cnc(N)c(Oc3cnn(C4CCN(C)CC4)c3)n2)c1 (stereo not shown) [Example A70, 2-(3-(5-amino-6-((1-(1-methylpiperidin-4-yl)-1H-pyrazol-4-yl)oxy)pyrazin-2-yl)-5-methylphenyl)butan-2-ol]

pIC50 [1]: 7.23
pIC50 [2]: 7.96
SMILES: Cc1cc(-c2cnc(N)c(Oc3cnn(C4CCN(C)CC4)c3)n2)cc(C2(O)COC2)c1C [Example A73, 3-(5-(5-amino-6-(1-(1-methylpiperidin-4-yl)-1H-pyrazol-4-yloxy)pyrazin-2-yl)-2,3-dimethylphenyl)oxetan-3-ol]

pIC50 [1]: 7.39
pIC50 [2]: 8.00
SMILES: Cc1cc(-c2cnc(N)c(Oc3cnn(C4CCN(C)CC4)c3)n2)cc([C@]2(O)CCOC2)c1 [Example A74B, (R)-3-(3-(5-amino-6-((1-(1-methylpiperidin-4-yl)-1H-pyrazol-4-yl)oxy)pyrazin-2-yl)-5-methylphenyl)tetrahydrofuran-3-ol]

Second part, the molecule before the results:

SMILES: CNS(=O)(=O)c1cc(-c2cnc(N)c(Oc3cnn(C4CCN(C)CC4)c3)n2)cc(N2CCOC[C@H]2C)c1 [Example A49, (R)-3-(5-amino-6-((1-(1-methylpiperidin-4-yl)-1H-pyrazol-4-yl)oxy)pyrazin-2-yl)-N-methyl-5-(3-methylmorpholino)benzenesulfonamide]
pIC50 [1]: 7.09
pIC50 [2]: 7.96

SMILES: Cc1cc(-c2cnc(N)c(Oc3cnn(C4CCN(C)CC4)c3)n2)cc([Si](C)(C)O)c1 [Example A50, (3-(5-amino-6-((1-(1-methylpiperidin-4-yl)-1H-pyrazol-4-yl)oxy)pyrazin-2-yl)-5-methylphenyl)dimethylsilanol]
pIC50 [1]: 7.02
pIC50 [2]: 7.74

SMILES: Cc1cc(-c2cnc(N)c(Oc3cnn(C4CCN(C)CC4)c3)n2)cc(C)c1CNC(=O)NCC(F)(F)F [Example A51, 1-(4-(5-amino-6-((1-(1-methylpiperidin-4-yl)-1H-pyrazol-4-yl)oxy)pyrazin-2-yl)-2,6-dimethylbenzyl)-3-(2,2,2-trifluoroethyl)urea]
pIC50 [1]: 7.00
pIC50 [2]: 7.34

SMILES: Cc1cc(-c2cnc(N)c(Oc3cnn(C4CCN(C)CC4)c3)n2)cc(C)c1CNC1COC1 [Example A55, 5-(3,5-dimethyl-4-((oxetan-3-ylamino)methyl)phenyl)-3-((1-(1-methylpiperidin-4-yl)-1H-pyrazol-4-yl)oxy)pyrazin-2-amine]
pIC50 [1]: 6.95
pIC50 [2]: 7.47

SMILES: C[C@@H]1COCCN1c1cc(-c2cnc(N)c(Oc3cnn(C4CCN(C)CC4)c3)n2)cc(C2(O)COC2)c1 [Example A59, (R)-3-(3-(5-amino-6-((1-(1-methylpiperidin-4-yl)-1H-pyrazol-4-yl)oxy)pyrazin-2-yl)-5-(3-methylmorpholino)phenyl)oxetan-3-ol]
pIC50 [1]: 7.29
pIC50 [2]: 8.09

SMILES: Cc1cc(-c2cnc(N)c(Oc3cnn(C4CCN(C)CC4)c3)n2)cc(C)c1CNC1(C)COC1 [Example A60, 5-(3,5-dimethyl-4-(((3-methyloxetan-3-yl)amino)methyl)phenyl)-3-((1-(1-methylpiperidin-4-yl)-1H-pyrazol-4-yl)oxy)pyrazin-2-amine]
pIC50 [1]: 7.04
pIC50 [2]: 7.40

SMILES: Cc1cc(-c2cnc(N)c(Oc3cnn(C4CCN(C)CC4)c3)n2)cc(C)c1CNS(=O)(=O)N(C)C [Example A62, 5-(4-[[(dimethylsulfamoyl)amino]methyl]-3,5-dimethylphenyl)-3-[[1-(1-methylpiperidin-4-yl)pyrazol-4-yl]oxy]pyrazin-2-amine]
pIC50 [1]: 7.10
pIC50 [2]: 7.32

SMILES: Cc1cc(-c2cnc(N)c(Oc3cnn(C4CCN(C)CC4)c3)n2)cc(C)c1CNC(=O)NC1(C(F)(F)F)CC1 [Example A64, 1-(4-(5-amino-6-((1-(1-methylpiperidin-4-yl)-1H-pyrazol-4-yl)oxy)pyrazin-2-yl)-2,6-dimethylbenzyl)-3-(1-(trifluoromethyl)cyclopropyl)urea]
pIC50 [1]: 7.35
pIC50 [2]: 7.80

SMILES: Cc1cc(-c2cnc(N)c(Oc3cnn(C4CCN(C)CC4)c3)n2)cc(C)c1N1CCOCC1 [Example A66, 5-(3,5-dimethyl-4-morpholinophenyl)-3-((1-(1-methylpiperidin-4-yl)-1H-pyrazol-4-yl)oxy)pyrazin-2-amine]
pIC50 [1]: 6.88
pIC50 [2]: 7.44

SMILES: Cc1cc(-c2cnc(N)c(Oc3cnn(C4CCN(C)CC4)c3)n2)cc(C)c1CNc1ncco1 [Example A67, N-(4-(5-amino-6-((1-(1-methylpiperidin-4-yl)-1H-pyrazol-4-yl)oxy)pyrazin-2-yl)-2,6-dimethylbenzyl)oxazol-2-amine]
pIC50 [1]: 7.12
pIC50 [2]: 7.77

SMILES: Cc1cc(-c2cnc(N)c(Oc3cnn(C4CCN(C)CC4)c3)n2)cc(C)c1CNS(=O)(=O)N1CCOCC1 [Example A71, N-(4-(5-amino-6-((1-(1-methylpiperidin-4-yl)-1H-pyrazol-4-yl)oxy)pyrazin-2-yl)-2,6-dimethylbenzyl)morpholine-4-sulfonamide]
pIC50 [1]: 7.41
pIC50 [2]: 7.59

SMILES: CN1CCC(n2cc(Oc3nc(-c4cc(N5CCOCC5)cc(C5(O)COC5)c4)cnc3N)cn2)CC1 [Example A72, 3-(3-(5-amino-6-((1-(1-methylpiperidin-4-yl)-1H-pyrazol-4-yl)oxy)pyrazin-2-yl)-5-morpholinophenyl)oxetan-3-ol]
pIC50 [1]: 7.23
pIC50 [2]: 8.25

SMILES: Cc1cc(-c2cnc(N)c(Oc3cnn(C4CCN(C)CC4)c3)n2)cc(C)c1C1=CCOCC1 [Example A75, 5-(4-(3,6-dihydro-2H-pyran-4-yl)-3,5-dimethylphenyl)-3-((1-(1-methylpiperidin-4-yl)-1H-pyrazol-4-yl)oxy)pyrazin-2-amine]
pIC50 [1]: 6.89
pIC50 [2]: 7.54

Reference: US20240317714A1, “3-[(1H-PYRAZOL-R-YL)OXY]PYRAZIN-2-AMINE COMPOUNDS AS HPK1 INHIBITOR AND USE THEREOF” (BeiGene, Ltd., priority 2020, published 2024)
